Measurements reported in patent US20260286322A1, “PROTEIN TYROSINE P[…] DOMAIN PEPTIDE DIMER FOR NERVOUS SYSTEM REPAIR” (NervGen Pharma Corp., priority 2023, published 2026).

Key:
SCI rats = assay: BBB sub-score (toe clearance, paw position, trunk stability, tail position) in SCI rats; format: in vivo, rat
Description: Animals were prepared according to the methods described above in Example 3.
Lyophilized Compound 8 and Compound 4 were separately dissolved in saline and injected s.c. at a volume of 500 μl to animal once daily from day 1-day 49 post spinal cord injury.
The target dose concentration was 0.8 mg/ml. After reconstitutions, the solutions were aliquoted and kept at −20° C. until dosing.
12-13 rats were used in each of the following three groups: • 1) Control group: SCI+saline alone • 2) Testing group: SCI+Compound 4 in saline • 3) Testing group: SCI+Compound 8 in saline.
Spinal cord injury (SCI) was introduced to the animals and post-operative care was provided to the animals according to the methods described in Example 3.
The BBB sub-scores quantify the recovery of toe clearance, paw position, trunk stability and tail use independent of forelimb-hindlimb coordination. BBB sub-scores were calculated using the observations recorded in the BBB records sheets. During BBB testing, the predominant position of the hind paws (parallel vs rotated), toe clearance, trunk stability and tail position (up, down, middle) were evaluated for animals reaching a BBB score of 10 or higher. Animals scoring less than 10 in BBB scale were considered to have BBB sub-score of “0”.
As described above in Example 3, the upper points on the BBB scale (14-21) quantify fine motor movements associated with hind limb locomotor including toe clearance, predominant paw position, trunk stability, and tail position. These fine motor movements are only considered if animals display consistent coordination. A BBB sub-score was applied to quantify these improvements independent of coordination.
FIG. 8B depicts violin plots presenting distributions of the weekly average BBB sub-scores in the saline alone, Compound 4, and Compound 8 treatment cohorts of SCI rats. Each data point represents a weekly average BBB sub-score in the saline alone (control), Compound 4, and Compound 8 treatment cohorts as annotated on the X-axis. The numbers adjacent to the data points indicate the numbers of days post-SCI at which individual and treatment cohort weekly average BBB sub-scores were calculated. Statistical comparison of the treatment effects was performed using Friedman's test (repeated measures ANOVA for nonparametric values) with Dunn's correction for multiple comparisons and p-value of less than 0.05 defined as the criterion of statistical significance.

[1] = tested on: rat model of thoracic traumatic Spinal Cord Injury (SCI); assay: Basso, Beattie and Bresnahan (BBB) open-field locomotor rating scale in SCI rats; format: in vivo
Text: The goal of this study is to test the efficacy of a novel peptide dimer (Intracellular Sigma blocking peptide (ISP) dimer according to the present disclosure on behavioral changes in a rat model of thoracic traumatic Spinal Cord Injury (SCI).
Adult, female Lewis rats (~160 g on arrival) from Envigo were used as the subjects receiving the treatment in the study. The rats were assigned unique identification numbers (PGI ID and tail marks) and housed in ventilated cages. All rats were examined, handled, and weighed prior to initiation of the study to assure adequate health and suitability. During the course of the study, 12/12 light/dark cycles were maintained. The room temperature was maintained between […] and 23° C. with a relative humidity maintained around 50%. Chow and water were provided adlibitum for the duration of the study. The rats were randomly assigned across treatment groups. Body weights were taken twice a week during the study.
Lyophilized Compound 8 was dissolved in saline and injected s.c. at a volume of 500 μl to animal once daily from day 1-day 49 post spinal cord injury.
The dose concentration was 0.8 mg/ml, corresponding to 400 μg/rat. After reconstitutions, the solution was aliquoted and kept at −20° C. until dosing.
12-13 rats were used in each of the following two groups: • 1. Control group: SCI+Saline • 2. Testing group: SCI+Compound 8 in Saline.
Spinal cord injury (SCI) was introduced to the rats by surgery using the Infinite Horizon (IH) Impactor (200 kDyn force) described by Scheff et al. 2003. The surgery was performed with aseptic procedures in a designated area under deep anesthesia. Rats were anesthetized with isoflurane (4% for induction, 2% for maintenance), and O2 (300 cm^3/min) mixture. Hair was removed from the surgical site with clippers and the skin wase scrubbed with an antiseptic detergent. To maintain body temperature the animals were placed upon a homoeothermic blanket system. The T8 Vertebra of the rat was located externally, and an incision was made exposing the vertebral column from T6-T11. A laminectomy was performed using a surgical microscope to expose the dorsal spinal cord at the thoracic (T8) vertebral level. The vertebral column was stabilized by clamping the nearest rostral and caudal vertebral processes and the injury was produced using the IH impactor device at a 200 kDyn force. After each lesion the IH graphs and impact data were reviewed and recorded, rats presenting an impact force more than 10% higher or lower than expected and/or any abnormality on the force/displacement impact graphs were excluded from the study. Additionally, animals scoring more than 1 points in the Basso, Beattie and Bresnahan (BBB) score scale at 1 days after SCI were excluded for the study as well.
Locomotion changes were assessed using an open-field locomotor test (the Ohio State BBB Locomotor Rating Scale developed by Basso, et al. 1995). During each test, rats were observed moving around an empty wading pool for 4 minutes. Movements of joints in the hind limbs, weight support, and coordination between limbs were scored according to the BBB scale. This scale tracks the progressive recovery of hind-limb function following thoracic SCI. The scale can be divided into three parts reflecting the stages of recovery. […] BBB was assessed on days 1, 4 and 7 post injury and then weekly until completion of the study.
The BBB score scale obtained at day 1 after SCI was used to keep injury consistency. […] At Day 1 after SCI, only animals scoring either 0 (no observable hind-limb movement) or 1 (slight movement of one or two hind-limbs joins) in the BBB scale were enrolled in the study and allocated into treatment groups. The treatments groups were balanced using the BBB score obtained at day 1 after SCI.
Data was analyzed by analysis of variance (ANOVA) followed by post-hoc comparisons where appropriate. An effect was considered significant if p<0.05. […]

[2] = week 7 post-SCI, 13 rats in group

## TAT-Cys-rodent PTPRS wedge domain homodimer [Compound 8]
SCI rats; FIG. 8A
  sustained trend of continued functional improvement in BBB sub-score: apparent
SCI rats; Friedman's test, Dunn's correction, p=0.0008 Compound 8, p>0.9999 Compound 4
  effect on weekly average BBB sub-score vs saline alone: statistically significant effect
SCI rats; Friedman's test, Dunn's correction, p=0.0201
  effect on weekly average BBB sub-score vs Compound 4: statistically significant effect
SCI rats; after day 49
  functional improvement (BBB sub-score achievers) after discontinuation of administration: continued functional improvement
SCI rats; day post-SCI, 0.8 mg/ml, 500 μl s.c. once daily day 1-49
  onset of functional improvement in BBB sub-score: 21 days
SCI rats; each time point post-SCI, e.g. day 28, 42, 63, 70, 77, 84
  percentage of rats achieving BBB sub-score of 1 or better, compared with Compound 4 or saline alone groups: higher
[1]; RM ANOVA, Tukey, p<0.0001 for each compound
  locomotor performance measured with weekly average BBB scores vs saline alone: significant improvement
[1]; RM ANOVA, Tukey, p=0.0017
  improving the BBB scores, compared with Compound 4: more efficacious
[1]; SCI rats, vs saline
  recovery of movements of joints in the hind limbs, weight support, and coordination between limbs: promotes the recovery
[1]; after 70 days post SCI, group (3)
  share of rats achieving BBB scores of 10 or above: More than half
[1]; day 7 post-SCI, 13 rats in group, 400 μg/rat s.c. once daily
  number of rats having BBB scores of 6 to 7: 6 rats
[1]; day 77 post-SCI
  percentage of rats that achieved a BBB score of 11: more than 20%
[1]; day 84 post-SCI
  percentage of rats that achieved a BBB score of 11: about 50%
[1]; end of study
  maximum BBB score in the cohort: 11
[1]; [2]
  number of rats with a BBB score of 10: 6 rats
  number of rats with a BBB score of 11: 2 rats
[1]; week 12 post-SCI
  rats with BBB scores of about 10 or 11: 8 out of 13
